Experimental data taken from EP0091796A1, “Process for removing 1-sulfonyl groups from benzimidazoles” (ELI LILLY AND COMPANY, priority 1982, dated 1983).

Experiment: pKa determination in 66% DMF/H2O
Settings: for pKa: 66% dmf/h2o; for pK: solvent not given

Row | SMILES | pKa (single or first (lower) pKa) | further results
1 | CON=C(c1ccccc1)c1ccc2nc(N)[nH]c2c1 [Example 1, 2-amino-5(6)-methoximephenylbenzimidazole] | 8.88 | –
2 | CC=C(c1ccccc1)c1ccc2nc(N)[nH]c2c1 [Example 2, 2-amino-5(6)-(ethylidenebenz^yl)benzimidazole] | 6.98 | –
3 | C/C=C(\c1ccccc1)c1ccc2nc(N)[nH]c2c1 [Example 3, trans-2-amino-5(6)-(ethylidenebenzyl)benzimidazole] | 7.05 | –
4 | C=C(c1ccccc1)c1ccc2nc(N)[nH]c2c1 [Example 6, 2-amino-5(6)-(methylidenebenzyl)benzimidazole] | 6.8 | –
5 | Nc1nc2cc(C(=O)c3ccccc3)ccc2[nH]1 [Example 7, 2-amino-5(6)-benzoylbenzimidazole] | – | pK (first (lower) printed value): 5.65; pK (second (higher) printed value): 13.0
6 | Nc1nc2ccc(C(=O)c3ccccc3)cc2[nH]1 [Example 8, 2-amino-5(6)-benzoylbenzimidazole] | 5.7 | pKa (second (higher) printed pKa): 13.2
